Measurements reported in US7994185B2, “Benzene sulfonamide thiazole and oxazole compounds” (Glaxo Smith Kline LLC, priority 2008, dated 2011).
Structures can show the parent of a compound that is named as a salt. Where two headings read alike, the source gives them in different places.

Experiments:
[1] = system: Human colon tumor cells (Colo205); assay: Cell growth inhibition assay (CellTiter-Glo), Colo205; type: cell-based
Summary of the method: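 Read-out was CellTiter-Glo luminescence (total ATP as a cell-number surrogate), expressed as % inhibition against DMSO vehicle wells. Before that, cells grown in RPMI/10% FBS were treated for 3 days at 37 °C with ten 1:3-spaced compound concentrations, final DMSO 0.2%.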

[2] = system: Human melanoma cancer cells (SK-MEL-28); assay: Cell growth inhibition assay (CellTiter-Glo), SK-MEL-28; type: cell-based
[3] = target: T1, BRAFV600E full-length (amino acids 2-766) (Homo sapiens, UniProt P15056, V600E); assay: B-Raf Accelerated MEK ATPase assay (BRAMA); type: biochemical; conditions: categorized
T1 construct: His6-tagged BRAFV600E full-length (amino acids 2-766); His6; made in house; host or cells: baculovirus expression system (insect cells)
T1 sequence (P15056 2-766 V600E): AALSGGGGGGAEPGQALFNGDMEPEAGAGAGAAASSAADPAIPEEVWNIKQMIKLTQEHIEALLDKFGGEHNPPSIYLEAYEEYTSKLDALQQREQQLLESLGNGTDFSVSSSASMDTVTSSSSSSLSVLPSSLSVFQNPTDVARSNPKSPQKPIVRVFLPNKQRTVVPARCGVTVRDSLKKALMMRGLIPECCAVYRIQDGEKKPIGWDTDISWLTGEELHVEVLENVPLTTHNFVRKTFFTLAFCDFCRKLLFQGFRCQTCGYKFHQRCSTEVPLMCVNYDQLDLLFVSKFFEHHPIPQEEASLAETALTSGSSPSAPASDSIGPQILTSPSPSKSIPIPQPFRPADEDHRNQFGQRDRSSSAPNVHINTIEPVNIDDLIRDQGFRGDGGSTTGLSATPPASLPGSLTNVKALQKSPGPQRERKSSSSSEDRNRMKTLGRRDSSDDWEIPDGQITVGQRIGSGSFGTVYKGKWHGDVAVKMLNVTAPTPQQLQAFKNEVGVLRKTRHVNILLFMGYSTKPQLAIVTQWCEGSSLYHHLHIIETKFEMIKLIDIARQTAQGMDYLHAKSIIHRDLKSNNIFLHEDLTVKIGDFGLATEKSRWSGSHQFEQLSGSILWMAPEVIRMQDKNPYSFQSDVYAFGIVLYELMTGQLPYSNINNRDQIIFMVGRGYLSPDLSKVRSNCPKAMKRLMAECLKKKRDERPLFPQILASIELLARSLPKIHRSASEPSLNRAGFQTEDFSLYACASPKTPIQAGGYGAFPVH
Summary of the method: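 Coupled-enzyme readout: ADP generated by MEK-mediated ATP hydrolysis, uncoupled from ERK phosphorylation, is linked to NADH oxidation through pyruvate kinase and lactate dehydrogenase.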

[4] = COLO 205, Table 2b, later runs, average for the one or more runs, categorized, read-out: IC50 for Colo205
[5] = SK-MEL-28, Table 3b, later runs, average for the one or more runs, categorized, read-out: IC50 for SK-MEL-28
[6] = Table 1b, later runs, average pIC50 for the one or more runs, read-out: B-Raf pIC50 (converted)
[7] = COLO 205, 72 h, Table 2a, 3 days incubation, read-out: Activity in Colo205 Tumor Cells
[8] = SK-MEL-28, 72 h, Table 3a, 3 days incubation, read-out: Activity in SK-MEL-28 Tumor Cells
[9] = B-Raf Activity, Table 1a, highest pIC50 for the one or more runs
[10] = B-Raf pIC50, Table 1b, later runs, average pIC50 for the one or more runs

Row | SMILES | IC50 [1, 4] | IC50 [2, 5] | IC50 [3, 6] | IC50 [1, 7] | IC50 [2, 8] | IC50 [3, 9] | IC50 [3, 10]
1 | Cc1nccc(-c2sc(C(C)(C)C)nc2-c2cccc(NS(=O)(=O)c3ccccc3F)c2F)n1 [Example 225, N-{3-[2-(1,1-dimethylethyl)-5-(2-methyl-4-pyrimidinyl)-1,3-thiazol-4-yl]-2-fluorophenyl}-2-fluorobenzenesulfonamide] | < 100 nM | < 100 nM | 3.16 to 31.6 nM |  |  |  | 
2 | CS(=O)(=O)N1CCC(c2nc(-c3cccc(NS(=O)(=O)c4cc(F)ccc4F)c3F)c(-c3ccnc(N)n3)s2)CC1 [Example 101, N-(3-{5-(2-Amino-4-pyrimidinyl)-2-[1-(methylsulfonyl)-4-piperidinyl]-1,3-thiazol-4-yl}-2-fluorophenyl)-2,5-difluorobenzenesulfonamide] | < 100 nM | < 100 nM |  | < 100 nM | < 100 nM | < 100 nM | ≤ 3.16 nM
3 | CC(C)(C)c1nc(-c2cccc(NS(=O)(=O)c3ccoc3)c2F)c(-c2ccnc(N)n2)s1 [Example 234, N-{3-[5-(2-amino-4-pyrimidinyl)-2-(1,1-dimethylethyl)-1,3-thiazol-4-yl]-2-fluorophenyl}-3-furansulfonamide] | < 100 nM | < 100 nM |  |  |  |  | ≤ 3.16 nM
4 | CC(C)c1nc(-c2cccc(NS(=O)(=O)c3cc(F)ccc3F)c2F)c(-c2ccnc(NCCNS(C)(=O)=O)n2)s1 [Example 191] | < 100 nM | < 100 nM |  | < 100 nM | < 100 nM | < 100 nM | ≤ 3.16 nM
5 | CC(C)c1nc(-c2ccc(F)c(NS(=O)(=O)c3cc(F)ccc3F)c2)c(-c2ccnc(NCCCN3CCCC3=O)n2)s1 [Example 184] | < 100 nM | < 100 nM | 3.16 to 31.6 nM | < 100 nM | < 100 nM | < 100 nM | 
6 | O=S(=O)(Nc1cccc(-c2nc(C3CCOCC3)sc2-c2ccncn2)c1Cl)c1cc(F)ccc1F [Example 243, N-{2-chloro-3-[5-(4-pyrimidinyl)-2-(tetrahydro-2H-pyran-4-yl)-1,3-thiazol-4-yl]phenyl}-2,5-difluorobenzenesulfonamide] | < 100 nM | < 100 nM |  |  |  |  | ≤ 3.16 nM
7 | CC(C)c1nc(-c2ccc(F)c(NS(=O)(=O)c3cc(F)ccc3F)c2)c(-c2ccnc(NC3CCN(C(=O)OC(C)(C)C)CC3)n2)s1 [Example 124] | 100 to 1000 nM | 100 to 1000 nM |  | 100 to 1000 nM | 100 to 1000 nM | < 100 nM | 31.6 to 1000 nM
8 | Nc1nccc(-c2sc(C3CCOC3)nc2-c2cccc(NS(=O)(=O)c3c(F)cccc3F)c2F)n1 (stereo not shown) [Example 71, N-{3-[5-(2-Amino-4-pyrimidinyl)-2-(tetrahydro-3-furanyl)-1,3-thiazol-4-yl]-2-fluorophenyl}-2,6-difluorobenzenesulfonamide] | 100 to 1000 nM | 100 to 1000 nM | 3.16 to 31.6 nM | 100 to 1000 nM | 100 to 1000 nM | < 100 nM | 
9 | CC(C)CNc1nccc(-c2sc(C(C)(C)C)nc2-c2cccc(NS(=O)(=O)c3cc(F)ccc3F)c2F)n1 [Example 92, N-[3-(2-(1,1-Dimethylethyl)-5-{2-[(2-methylpropyl)amino]-4-pyrimidinyl}-1,3-thiazol-4-yl)-2-fluorophenyl]-2,5-difluorobenzenesulfonamide] | < 100 nM | < 100 nM | 3.16 to 31.6 nM | < 100 nM | < 100 nM | < 100 nM | 
10 | Nc1nccc(-c2sc(C3CCOCC3)nc2-c2cccc(NS(=O)(=O)c3ccoc3)c2F)n1 [Example 281, N-{3-[5-(2-amino-4-pyrimidinyl)-2-(tetrahydro-2H-pyran-4-yl)-1,3-thiazol-4-yl]-2-fluorophenyl}-3-furansulfonamide] | < 100 nM | < 100 nM |  |  |  |  | ≤ 3.16 nM
11 | Cn1cc(S(=O)(=O)Nc2cccc(-c3nc(C4CCOCC4)sc3-c3ccnc(N)n3)c2F)cn1 [Example 286, N-{3-[5-(2-amino-4-pyrimidinyl)-2-(tetrahydro-2H-pyran-4-yl)-1,3-thiazol-4-yl]-2-fluorophenyl}-1-methyl-1H-pyrazole-4-sulfonamide hydrochloride] | 100 to 1000 nM | 100 to 1000 nM | 3.16 to 31.6 nM |  |  |  | 
12 | Cc1nccc(-c2sc(N3CCOCC3)nc2-c2cccc(NS(=O)(=O)c3ccoc3)c2Cl)n1 [Example 271, N-{2-chloro-3-[5-(2-methyl-4-pyrimidinyl)-2-(4-morpholinyl)-1,3-thiazol-4-yl]phenyl}-3-furansulfonamide] | 100 to 1000 nM | < 100 nM | 3.16 to 31.6 nM |  |  |  | 
13 | CC(C)CNc1nccc(-c2sc(C(C)(C)C)nc2-c2cccc(NS(=O)(=O)c3c(F)cccc3F)c2Cl)n1 [Example 19, N-[2-Chloro-3-(2-(1,1-dimethylethyl)-5-{2-[(2-methylpropyl)amino]-4-pyrimidinyl}-1,3-thiazol-4-yl)phenyl]-2,6-difluorobenzenesulfonamide] | < 100 nM | < 100 nM | 3.16 to 31.6 nM | < 100 nM | < 100 nM | < 100 nM | 
14 | Cc1nccc(-c2sc(N3CCOCC3)nc2-c2cccc(NS(=O)(=O)c3ccoc3)c2F)n1 [Example 272, N-{2-fluoro-3-[5-(2-methyl-4-pyrimidinyl)-2-(4-morpholinyl)-1,3-thiazol-4-yl]phenyl}-3-furansulfonamide] | 100 to 1000 nM | < 100 nM | 3.16 to 31.6 nM |  |  |  | 
15 | CC(C)(C)c1nc(-c2cccc(NS(=O)(=O)c3cc(F)ccc3F)c2F)c(-c2ccnc(NC3CCN(S(C)(=O)=O)CC3)n2)s1 [Example 130] | < 100 nM | < 100 nM |  | < 100 nM | < 100 nM | < 100 nM | ≤ 3.16 nM
16 | CC(C)(C)c1nc(-c2cccc(NS(=O)(=O)c3cc(F)ccc3F)c2F)c(-c2ccnc(NCC(F)(F)F)n2)s1 [Example 94, N-[3-(2-(1,1-Dimethylethyl)-5-{2-[(2,2,2-trifluoroethyl)amino]-4-pyrimidinyl}-1,3-thiazol-4-yl)-2-fluorophenyl]-2,5-difluorobenzenesulfonamide] | 100 to 1000 nM | 100 to 1000 nM | 3.16 to 31.6 nM | 100 to 1000 nM | 100 to 1000 nM | < 100 nM | 
17 | Cn1ccc(S(=O)(=O)Nc2cccc(-c3nc(C4CCOCC4)sc3-c3ccnc(N)n3)c2F)c1 [Example 285, N-{3-[5-(2-amino-4-pyrimidinyl)-2-(tetrahydro-2H-pyran-4-yl)-1,3-thiazol-4-yl]-2-fluorophenyl}-1-methyl-1H-pyrrole-3-sulfonamide hydrochloride] | 100 to 1000 nM | 1000 to 10000 nM |  |  |  |  | 31.6 to 1000 nM
18 | Nc1nccc(-c2sc(N3CCOCC3)nc2-c2cccc(NS(=O)(=O)c3cc(F)ccc3F)c2F)n1 [Example 56, N-{3-[5-(2-Amino-4-pyrimidinyl)-2-(4-morpholinyl)-1,3-thiazol-4-yl]-2-fluorophenyl}-2,5-difluorobenzenesulfonamide] | < 100 nM | < 100 nM |  | < 100 nM | < 100 nM | < 100 nM | ≤ 3.16 nM
19 | CC(C)c1nc(-c2cccc(NS(=O)(=O)c3cccc(F)c3)c2)c(-c2ccnc(NCC(=O)O)n2)s1 [Example 85, N-{4-[4-(3-{[(3-Fluorophenyl)sulfonyl]amino}phenyl)-2-(1-methylethyl)-1,3-thiazol-5-yl]-2-pyrimidinyl}glycine] |  |  |  | > 1000 nM | > 1000 nM | 100 to 1000 nM | 31.6 to 1000 nM
